The record followed here is US8791102B2, “Acetanilide sphingosine-1-phosphate receptor antagonists” (Exelixis, Inc., priority 2008, dated 2014).

In general, IC50 refers to the midpoint of a concentration-inhibition curve.

The experiment deals with T1, human S1P1 receptors (Homo sapiens, UniProt P21453).
T1 construct: host or cells: HEK293
The experiment can be described thus: S1P1R antagonist assay (fluorescent membrane potential dye, cAMP readout). It counts as cell-based. Particulars: HEK293 cells expressing human S1P1 receptors and CNG channel; 500 nM NECA; S1P1R agonist 10 nM; 90 minutes; read-out: EC50 or IC50 value. The source says: The S1P1R antagonist assay is a fluorescent membrane potential dye measurement assay, indicative of intracellular cAMP changes due to G protein-coupled receptor activation. HEK293 cells engineered to express human S1P1 receptors and a cyclic nucleotide-gated (CNG) channel are obtained from BD Biosciences, 80300-250. The CNG channels are activated by elevated levels of cAMP, resulting in ion flux and cell membrane depolarization. Membrane depolarization is detected with a membrane potential dye. Stimulation of the cells with 5′-(N-ethylcarboxamido)adenosine (NECA), an A2b receptor agonist (Sigma, E2387), elicits an A2bR-dependent increase in cAMP.
Subsequent exposure of the cells to a S1P1R agonist suppresses the NECA induced increase in cAMP through S1P1R-specific signaling by inhibiting adenylyl cyclase and the formation of cAMP from ATP. The degree to which a test compound overcomes the S1P1R agonist suppression of the NECA induced increase in cAMP is a measure of S1P1R antagonist activity. Antagonist activity is quantified as the IC50 (i.e., the concentration needed to elicited one-half of the maximum response of the test compound) and/or as the EC50 (i.e., the concentration needed to elicited one-half of the NECA induced stimulation).
Day 1: Freshly thawed cells were plated into 384-well plates (Corning, 3683) at a density of 14,000 cells/well in 20 μL, complete media and incubated for 16 hours at 37° C., 5% CO2 and 99% relative humidity. Complete media included Dulbecco's modified Eagle's medium (Invitrogen, 11965-092), 10% Fetal bovine serum (Hyclone, SH30071.03), 250 μg/mL geneticin (Invitrogen, 10131-027), and 1 μg/mL Puromycin (Fluka, 82595).
Day 2: Membrane potential dye (20 μL, BD Biosciences, 341833) was added to each well and the plates were incubated for 2.5 hours at ambient temperature. Test compounds (20 μL) were added to the wells at various concentrations (≦10 μM, 1 to 3 dilutions) in a NECA base solution and incubated for 90 minutes in the presence of the S1P1R agonist {4-((4-phenyl-5-trifluoromethyl-2-thienyl)methoxy)benzyl}-3-azetidinecarboxylic acid (10 nM). The NECA-base solution contained Dulbecco's phosphate-buffered saline (Invitrogen, 14190-136), 2.5% DMSO (Fluka, 41648), 25 μM Ro 20-1724 (Sigma, B8279), and 500 nM NECA).
Assay plates were read with a PerkinElmer EnVision reader (Excitation 350 nm, Emission 590 nm) at time T=0 minutes, before compound addition and at time T=90 minutes. The signal was calculated as the ratio T90/T0. Data was analyzed in ActivityBase XE and graphs showing log of compound concentration (X-axis) vs. % activity (Y-axis) were generated for IC50 determinations. Percent activity was calculated with the following formula: (Signal−Agonist Control Signal)/(NECA Control Signal−Agonist Control Signal)×100.

T1 sequence (P21453 whole entry): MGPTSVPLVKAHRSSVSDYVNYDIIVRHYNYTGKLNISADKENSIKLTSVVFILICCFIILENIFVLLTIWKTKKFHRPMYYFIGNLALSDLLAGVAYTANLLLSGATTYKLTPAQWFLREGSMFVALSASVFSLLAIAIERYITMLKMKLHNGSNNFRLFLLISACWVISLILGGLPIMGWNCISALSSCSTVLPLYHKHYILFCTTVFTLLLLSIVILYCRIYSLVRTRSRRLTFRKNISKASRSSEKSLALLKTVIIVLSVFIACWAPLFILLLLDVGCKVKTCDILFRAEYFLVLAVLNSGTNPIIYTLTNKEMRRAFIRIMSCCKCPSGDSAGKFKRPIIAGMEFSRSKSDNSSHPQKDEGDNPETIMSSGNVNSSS

Regarding `O=C(Cc1ccccc1F)NC(COCc1ccccc1)C(=O)Nc1ccc(Oc2ccccc2)cc1` (stereo not drawn) [Compound 183, 3-(benzyloxy)-2-(2-(2-fluorophenyl)acetamido)-N-(4-phenoxyphenyl)propanamide], the IC50 lay in the range of 300 to 1000 nM. In the case of `O=C(CN1CCCCCC1)N[C@@H](COCc1ccccc1)C(=O)Nc1ccc(Oc2ccc(F)cc2)cc1` [Compound 128, (S)-2-(2-(azepan-1-yl)acetamido)-3-(benzyloxy)-N-(4-(4-fluorophenoxy)phenyl)propanamide], the IC50 was more than 1000 nM. Turning to `O=C(NC(COCc1ccccc1)C(=O)Nc1ccc(Oc2ccccc2)cc1)c1ccc(OC(F)F)cc1` (stereo not drawn) [Compound 399, 4-[(difluoromethyl)oxy]-N-(2-oxo-1-{[(phenylmethyl)oxy]methyl}-2-{[4-(phenyloxy)phenyl]amino}ethyl)benzamide], the concentration for half-maximal inhibition (IC50) is more than 1000 nM. Regarding `O=C(Cc1cnc[nH]1)N[C@@H](COCc1ccccc1)C(=O)Nc1ccc(Oc2cccc(Cl)c2)cc1` [Compound 148, (S)-2-(2-(1H-imidazol-4-yl)acetamido)-3-(benzyloxy)-N-(4-(3-chlorophenoxy)phenyl)propanamide], the IC50 was not above 300 nM. On to `O=C(Nc1ccc(Oc2ccc(F)cc2)cc1)[C@@H]1C[C@@H](Cc2c(F)cc(F)cc2F)CN1C(=O)Cn1cncn1` [Compound 108, (2S,4R)-1-(2-(1H-1,2,4-triazol-1-yl)acetyl)-N-(4-(4-fluorophenoxy)phenyl)-4-(2,4,6-trifluorobenzyl)pyrrolidine-2-carboxamide], for which the IC50 was not above 300 nM. Turning to `COCCOCC(=O)NC(COCc1ccccc1)C(=O)Nc1ccc(Oc2ccccc2)cc1` (stereo not drawn) [Compound 303, N-(2-oxo-1-{[(phenylmethyl)oxy]methyl}-2-{[4-(phenyloxy)phenyl]amino}ethyl)-2-methoxyethoxyacetamide], the IC50 fell in the range of 300 to 1000 nM. Turning to `Cc1cc(Br)ccc1C(=O)NC(COCc1ccccc1)C(=O)Nc1ccc(Oc2ccccc2)cc1` (stereo not drawn) [Compound 311, 4-bromo-2-methyl-N-(2-oxo-1-{[(phenylmethyl)oxy]methyl}-2-{[4-(phenyloxy)phenyl]amino}ethyl)benzamide], the IC50 was more than 1000 nM.

Consider `O=C(Cc1c(F)ccc(F)c1F)NC(COCc1ccccc1)C(=O)Nc1ccc(Oc2ccccc2)cc1` (stereo not drawn) [Compound 361, N-(2-oxo-1-{[(phenylmethyl)oxy]methyl}-2-{[4-(phenyloxy)phenyl]amino}ethyl)-2-(2,3,6-trifluorophenyl)acetamide], for which the half-maximal inhibitory concentration (IC50) was more than 1000 nM. `Cc1ccc(C[C@@H]2C[C@@H](C(=O)Nc3ccc(Oc4ccc(F)cc4)cc3)N(C(=O)Cn3cncn3)C2)cc1` [Compound 4]: the IC50 was not above 300 nM.

Regarding `O=C(Nc1ccc(Oc2ccc(F)cc2)cc1)[C@@H]1C[C@@H](Cc2ccccc2Cl)CN1C(=O)Cn1nccn1` [Compound 56, (2S,4R)-1-(2-(2H-1,2,3-triazol-2-yl)acetyl)-4-(2-chlorobenzyl)-N-(4-(4-fluorophenoxy)phenyl)pyrrolidine-2-carboxamide], the IC50 is not above 300 nM. Turning to `O=C(NC(COCc1ccccc1)C(=O)Nc1ccc(Oc2ccccc2)cc1)c1cn[nH]c1` (stereo not drawn) [Compound 355, N-(2-oxo-1-{[(phenylmethyl)oxy]methyl}-2-{[4-(phenyloxy)phenyl]amino}ethyl)-1H-pyrazole-4-carboxamide], the concentration for half-maximal inhibition (IC50) lay in the range of 300 to 1000 nM.

On to `CCOCCN1CCN(CC(=O)N[C@@H](COCc2ccccc2)C(=O)Nc2ccc(Oc3ccc(F)cc3)cc2)CC1` [Compound 242, (S)-3-(benzyloxy)-N-(4-(4-fluorophenoxy)phenyl)-2-(2-(4-(2-ethoxyethyl)piperazin-1-yl)acetamido)propanamide], for which the IC50 is 300 to 1000 nM.

For `O=C(Cc1c[nH]cn1)N[C@@H](COCc1ccccc1)C(=O)Nc1cccc(Oc2ccccc2)c1` [Compound 243, (S)-2-(2-(1H-imidazol-4-yl)acetamido)-3-(benzyloxy)-N-(3-phenoxyphenyl)propanamide], the IC50 was not above 300 nM.

As for `O=C(Nc1ccc(Oc2ccc(F)cc2)cc1)[C@@H]1CN(Cc2ccccc2)CCN1C(=O)Cc1cnc[nH]1` [Compound 175, (S)-1-(2-(1H-imidazol-4-yl)acetyl)-4-benzyl-N-(4-(4-fluorophenoxy)phenyl)piperazine-2-carboxamide], the IC50 was not above 300 nM. As to `Cc1cc(F)ccc1C[C@@H]1C[C@@H](C(=O)Nc2ccc(Oc3ccc(F)cc3)cc2)N(C(=O)Cn2ccnn2)C1` [Compound 6, (2S,4R)-1-(2-(1H-1,2,3-triazol-1-yl)acetyl)-4-(4-fluoro-2-methylbenzyl)-N-(4-(4-fluorophenoxy)phenyl)pyrrolidine-2-carboxamide], the IC50 is not above 300 nM. Regarding `CCOCCC(=O)N1C[C@H](Cc2ccccc2)C[C@H]1C(=O)Nc1ccc(Oc2ccc(F)cc2)cc1` [Compound 86, (2S,4R)-4-benzyl-1-(3-ethoxypropanoyl)-N-(4-(4-fluorophenoxy)phenyl)pyrrolidine-2-carboxamide], the IC50 was not above 300 nM. The same measure for `O=C(NC(COCc1ccccc1)C(=O)Nc1ccc(Oc2ccccc2)cc1)c1ccc2ccccc2c1` (stereo not drawn) [Compound 288, N-(2-oxo-1-{[(phenylmethyl)oxy]methyl}-2-{[4-(phenyloxy)phenyl]amino}ethyl)naphthalene-2-carboxamide]: more than 1000 nM; for `O=C(Cn1cncn1)N[C@@H](COCc1ccccc1)C(=O)Nc1ccc(Oc2ccccc2)cc1` [Compound 146, (S)-2-(2-(1H-1,2,4-triazol-1-yl)acetamido)-3-(benzyloxy)-N-(4-phenoxyphenyl)propanamide]: not above 300 nM. Consider `O=C(NC(COCc1ccccc1)C(=O)Nc1ccc(Oc2ccccc2)cc1)c1cc(F)ccc1Br` (stereo not drawn) [Compound 21, N-(3-(benzyloxy)-1-oxo-1-(4-phenoxyphenylamino)propan-2-yl)-2-bromo-5-fluorobenzamide], for which the IC50 was more than 1000 nM. Take `O=C(Nc1ccc(Oc2ccc(F)cc2)cc1)[C@@H]1C[C@@H](Cc2ccc(F)cc2)CN1C(=O)Cn1nccn1` [Compound 50, (2S,4R)-1-(2-(2H-1,2,3-triazol-2-yl)acetyl)-4-(4-fluorobenzyl)-N-(4-(4-fluorophenoxy)phenyl)pyrrolidine-2-carboxamide]: the IC50 is not above 300 nM. In the case of `O=C(Nc1ccc(Oc2ccc(F)cc2)cc1)[C@@H]1C[C@@H](Cc2ccccc2)CN1C(=O)CO` [Compound 120, (2S,4R)-4-benzyl-N-(4-(4-fluorophenoxy)phenyl)-1-(2-hydroxyacetyl)pyrrolidine-2-carboxamide], the IC50 is not above 300 nM. As to `Cc1cc(F)ccc1C[C@@H]1C[C@@H](C(=O)Nc2ccc(Oc3ccc(F)cc3)cc2)N(C(=O)Cn2cncn2)C1` [Compound 8, (2S,4R)-1-(2-(1H-1,2,4-triazol-1-yl)acetyl)-4-(4-fluoro-2-methylbenzyl)-N-(4-(4-fluorophenoxy)phenyl)pyrrolidine-2-carboxamide], the IC50 is not above 300 nM. For `O=C(CCC1CCCCC1)NC(COCc1ccccc1)C(=O)Nc1ccc(Oc2ccccc2)cc1` (stereo not drawn) [Compound 317, N-(2-oxo-1-{[(phenylmethyl)oxy]methyl}-2-{[4-(phenyloxy)phenyl]amino}ethyl)-3-cyclohexylpropanamide], the IC50 is more than 1000 nM.

Consider `O=C(Nc1ccc(Oc2ccc(F)cc2)cc1)[C@@H]1C[C@@H](Cc2ccc(Cl)cc2)CN1C(=O)Cn1nccn1` [Compound 227, (2S,4R)-1-(2-(2H-1,2,3-triazol-2-yl)acetyl)-4-(4-chlorobenzyl)-N-(4-(4-fluorophenoxy)phenyl)pyrrolidine-2-carboxamide], for which the IC50 was not above 300 nM.
